In patent US11084790B2, “Insoluble complex or solvate thereof, pharmaceutical composition and use thereof” (Fruithy Holdings Limited, priority 2017, dated 2021):
Values after ≈ are worked out from the molar mass of the structure shown.

Assay: Test on the solubility in a simulated body fluid
Format: physicochemical
Conditions: for Compound concentration: Bupivacaine / Compound concentration: DBTA / Compound concentration: DTTA / Compound concentration: Ropivacaine / Compound concentration: naphthol phosphate / solubility / Compound concentration: Pamoic acid: 0.01 M PBS pH 7.4, 37° C.
Protocol: Test on the Solubility in a Simulated Body Fluid
The concentration of the drug dissolved in the PBS buffered solution was determined with an HPLC-a method.

## CCCCN1CCCCC1C(=O)Nc1c(C)cccc1C (stereo not drawn) [Bupivacaine free base, reference compound]
Phosphate buffered saline (simulated body fluid), 37 °C, aqueous buffer, thermodynamic from solid, simulated body fluid, 0.01 M PBS at pH 7.4, read-out: Saturated solubility
  solubility at 24 h: 1450 µM (≈ 418 µg/mL)

## CCCCN1CCCCC1C(=O)Nc1c(C)cccc1C.O=C(OC(C(=O)O)C(OC(=O)c1ccccc1)C(=O)O)c1ccccc1 (stereo not drawn) [Preparation Example 1, mono(bupivacaine) dibenzoyl tartarate]
5 min
  Compound concentration: Bupivacaine: 4884.6 µM
  Compound concentration: DBTA: 4992 µM
15 min
  Compound concentration: Bupivacaine: 6987.2 µM
  Compound concentration: DBTA: 7107.7 µM
30 min
  Compound concentration: Bupivacaine: 7755.2 µM
  Compound concentration: DBTA: 7866.6 µM
1 h
  Compound concentration: Bupivacaine: 8196 µM
  Compound concentration: DBTA: 8284.6 µM
2 h
  Compound concentration: Bupivacaine: 7911.7 µM
  Compound concentration: DBTA: 8015.5 µM
6 h
  Compound concentration: Bupivacaine: 7006.1 µM
  Compound concentration: DBTA: 7590.5 µM
24 h
  Compound concentration: Bupivacaine: 5767.9 µM
  Compound concentration: DBTA: 7303.7 µM

## CCCCN1CCCCC1C(=O)Nc1c(C)cccc1C.CCCCN1CCCCC1C(=O)Nc1c(C)cccc1C.O=C(OC(C(=O)O)C(OC(=O)c1ccccc1)C(=O)O)c1ccccc1 (stereo not drawn) [Preparation Example 2, bis(bupivacaine) dibenzoyl tartarate]
5 min
  Compound concentration: Bupivacaine: 819 µM
  Compound concentration: DBTA: 769.6 µM
15 min
  Compound concentration: Bupivacaine: 1593.7 µM
  Compound concentration: DBTA: 1550.4 µM
30 min
  Compound concentration: Bupivacaine: 2133.2 µM
  Compound concentration: DBTA: 2183.8 µM
1 h
  Compound concentration: Bupivacaine: 2848.7 µM
  Compound concentration: DBTA: 3035.9 µM
2 h
  Compound concentration: Bupivacaine: 3565.4 µM
  Compound concentration: DBTA: 3953.3 µM
6 h
  Compound concentration: Bupivacaine: 6577 µM
  Compound concentration: DBTA: 6336.3 µM
24 h
  Compound concentration: Bupivacaine: 6389.6 µM
  Compound concentration: DBTA: 6122.7 µM

## CCCCN1CCCCC1C(=O)Nc1c(C)cccc1C.Cc1ccc(C(=O)OC(C(=O)O)C(OC(=O)c2ccc(C)cc2)C(=O)O)cc1 (stereo not drawn) [Preparation Example 3, mono(bupivacaine) di-p-toluoyl tartarate]
5 min
  Compound concentration: Bupivacaine: 7947.6 µM
  Compound concentration: DTTA: 7316.3 µM
15 min
  Compound concentration: Bupivacaine: 7862.6 µM
  Compound concentration: DTTA: 7244.6 µM
30 min
  Compound concentration: Bupivacaine: 7662.2 µM
  Compound concentration: DTTA: 7012.2 µM
1 h
  Compound concentration: Bupivacaine: 7519 µM
  Compound concentration: DTTA: 6900.6 µM
2 h
  Compound concentration: Bupivacaine: 7719.3 µM
  Compound concentration: DTTA: 7048.1 µM
6 h
  Compound concentration: Bupivacaine: 7883.2 µM
  Compound concentration: DTTA: 7211.7 µM
24 h
  Compound concentration: Bupivacaine: 7917.8 µM
  Compound concentration: DTTA: 7249 µM

## CCCCN1CCCCC1C(=O)Nc1c(C)cccc1C.CCCCN1CCCCC1C(=O)Nc1c(C)cccc1C.Cc1ccc(C(=O)OC(C(=O)O)C(OC(=O)c2ccc(C)cc2)C(=O)O)cc1 (stereo not drawn) [Preparation Example 4, bis(bupivacaine) di-p-toluoyl tartarate]
5 min
  Compound concentration: Bupivacaine: 11389.4 µM
  Compound concentration: DTTA: 5161 µM
15 min
  Compound concentration: Bupivacaine: 12009.1 µM
  Compound concentration: DTTA: 5399.5 µM
30 min
  Compound concentration: Bupivacaine: 11426.9 µM
  Compound concentration: DTTA: 5135 µM
1 h
  Compound concentration: Bupivacaine: 11256.7 µM
  Compound concentration: DTTA: 5084.8 µM
2 h
  Compound concentration: Bupivacaine: 11278.1 µM
  Compound concentration: DTTA: 5068.3 µM
6 h
  Compound concentration: Bupivacaine: 11851.8 µM
  Compound concentration: DTTA: 5312 µM
24 h
  Compound concentration: Bupivacaine: 11693.3 µM
  Compound concentration: DTTA: 5219.7 µM

## CCCN1CCCC[C@H]1C(=O)Nc1c(C)cccc1C.Cc1ccc(C(=O)OC(C(=O)O)C(OC(=O)c2ccc(C)cc2)C(=O)O)cc1 (stereo not drawn) [Preparation Example 5, mono(ropivacaine) di-p-toluoyl tartarate]
5 min
  Compound concentration: DTTA: 6676.8 µM
  Compound concentration: Ropivacaine: 7268.7 µM
15 min
  Compound concentration: DTTA: 6612.8 µM
  Compound concentration: Ropivacaine: 7215.5 µM
30 min
  Compound concentration: DTTA: 6704 µM
  Compound concentration: Ropivacaine: 7287.2 µM
1 h
  Compound concentration: DTTA: 6752.1 µM
  Compound concentration: Ropivacaine: 7343.7 µM
2 h
  Compound concentration: DTTA: 6988 µM
  Compound concentration: Ropivacaine: 7630.4 µM
6 h
  Compound concentration: DTTA: 6971.8 µM
  Compound concentration: Ropivacaine: 7604.1 µM
24 h
  Compound concentration: DTTA: 7073.8 µM
  Compound concentration: Ropivacaine: 7648.9 µM

## CCCN1CCCC[C@H]1C(=O)Nc1c(C)cccc1C.CCCN1CCCC[C@H]1C(=O)Nc1c(C)cccc1C.Cc1ccc(C(=O)OC(C(=O)O)C(OC(=O)c2ccc(C)cc2)C(=O)O)cc1 (stereo not drawn) [Preparation Example 6, bis(ropivacaine) di-p-toluoyl tartarate]
5 min
  Compound concentration: DTTA: 13380.8 µM
  Compound concentration: Ropivacaine: 26058.5 µM
15 min
  Compound concentration: DTTA: 15017.3 µM
  Compound concentration: Ropivacaine: 29888.8 µM
30 min
  Compound concentration: DTTA: 18586.4 µM
  Compound concentration: Ropivacaine: 38657.6 µM
1 h
  Compound concentration: DTTA: 19990.1 µM
  Compound concentration: Ropivacaine: 41983.6 µM
2 h
  Compound concentration: DTTA: 19679 µM
  Compound concentration: Ropivacaine: 41011.1 µM
6 h
  Compound concentration: DTTA: 19617.2 µM
  Compound concentration: Ropivacaine: 40777.8 µM
24 h
  Compound concentration: DTTA: 22843.9 µM
  Compound concentration: Ropivacaine: 47445.3 µM

## CCCCN1CCCCC1C(=O)Nc1c(C)cccc1C.O=P1(O)Oc2ccc3ccccc3c2-c2c(ccc3ccccc23)O1 [Preparation Example 7, bupivacaine binaphthol phosphate]
5 min
  Compound concentration: Bupivacaine: 263 µM
  Compound concentration: naphthol phosphate: 293.5 µM
15 min
  Compound concentration: Bupivacaine: 271.4 µM
  Compound concentration: naphthol phosphate: 275.6 µM
30 min
  Compound concentration: Bupivacaine: 310.5 µM
  Compound concentration: naphthol phosphate: 264.3 µM
1 h
  Compound concentration: Bupivacaine: 280.7 µM
  Compound concentration: naphthol phosphate: 263.3 µM
2 h
  Compound concentration: Bupivacaine: 314.8 µM
  Compound concentration: naphthol phosphate: 278.9 µM
6 h
  Compound concentration: Bupivacaine: 317.7 µM
  Compound concentration: naphthol phosphate: 288.4 µM
24 h
  Compound concentration: Bupivacaine: 268.4 µM
  Compound concentration: naphthol phosphate: 264.6 µM
Simulated body fluid
  stability of the suspension (ratio between acid radical and basic group): stable
  solubility: about 0.3 mM

## CC1(C)C2CCC1(CS(=O)(=O)O)C(=O)C2.CCCCN1CCCCC1C(=O)Nc1c(C)cccc1C (stereo not drawn) [Preparation Example 8, bupivacaine camphorsulfonate]
5 min
  Compound concentration: Bupivacaine: 47678.3 µM
15 min
  Compound concentration: Bupivacaine: 57125.4 µM
30 min
  Compound concentration: Bupivacaine: 68314.9 µM
1 h
  Compound concentration: Bupivacaine: 68195.8 µM
2 h
  Compound concentration: Bupivacaine: 68902.6 µM
6 h
  Compound concentration: Bupivacaine: 71253.9 µM
24 h
  Compound concentration: Bupivacaine: 66020 µM

## CCCN1CCCC[C@H]1C(=O)Nc1c(C)cccc1C.O=C(O)c1cc2ccccc2c(Cc2c(O)c(C(=O)O)cc3ccccc23)c1O [Preparation Example 9, mono(ropivacaine) pamoate]
5 min
  Compound concentration: Pamoic acid: 345.9 µM
  Compound concentration: Ropivacaine: 347.9 µM
15 min
  Compound concentration: Pamoic acid: 601.5 µM
  Compound concentration: Ropivacaine: 602.6 µM
30 min
  Compound concentration: Pamoic acid: 880.3 µM
  Compound concentration: Ropivacaine: 887 µM
1 h
  Compound concentration: Pamoic acid: 1280.8 µM
  Compound concentration: Ropivacaine: 1285.6 µM
2 h
  Compound concentration: Pamoic acid: 1668.4 µM
  Compound concentration: Ropivacaine: 1660.8 µM
6 h
  Compound concentration: Pamoic acid: 1953.9 µM
  Compound concentration: Ropivacaine: 1944 µM
24 h
  Compound concentration: Pamoic acid: 2052.3 µM
  Compound concentration: Ropivacaine: 1972 µM
Simulated body fluid
  stability of the suspension (ratio between acid radical and basic group): stable
  solubility: about 2.0 mM

## CCCCN1CCCCC1C(=O)Nc1c(C)cccc1C.CCCCN1CCCCC1C(=O)Nc1c(C)cccc1C.O=C(O)c1cc2ccccc2c(Cc2c(O)c(C(=O)O)cc3ccccc23)c1O [Preparation Example 12, bis(bupivacaine) pamoate]
5 min
  Compound concentration: Bupivacaine: 147.5 µM
  Compound concentration: Pamoic acid: 73.6 µM
15 min
  Compound concentration: Bupivacaine: 210.1 µM
  Compound concentration: Pamoic acid: 107 µM
30 min
  Compound concentration: Bupivacaine: 247.4 µM
  Compound concentration: Pamoic acid: 127.4 µM
1 h
  Compound concentration: Bupivacaine: 267.2 µM
  Compound concentration: Pamoic acid: 137.5 µM
2 h
  Compound concentration: Bupivacaine: 280.2 µM
  Compound concentration: Pamoic acid: 140 µM
6 h
  Compound concentration: Bupivacaine: 290.8 µM
  Compound concentration: Pamoic acid: 149.7 µM
24 h
  Compound concentration: Bupivacaine: 284.8 µM
  Compound concentration: Pamoic acid: 142.9 µM
Simulated body fluid
  stability of the suspension (ratio between acid radical and basic group): stable
  solubility: about 0.3 mM

## CCCCN1CCCCC1C(=O)Nc1c(C)cccc1C.CCCCN1CCCCC1C(=O)Nc1c(C)cccc1C.O=C(O)c1cc2ccccc2c(Cc2c(O)c(C(=O)O)cc3ccccc23)c1O [Preparation Example 29, bis(bupivacaine) pamoate]
5 min
  Compound concentration: Bupivacaine: 159.8 µM
  Compound concentration: Pamoic acid: 78.2 µM
15 min
  Compound concentration: Bupivacaine: 196.9 µM
  Compound concentration: Pamoic acid: 97.3 µM
30 min
  Compound concentration: Bupivacaine: 241.5 µM
  Compound concentration: Pamoic acid: 122.1 µM
1 h
  Compound concentration: Bupivacaine: 269.9 µM
  Compound concentration: Pamoic acid: 119.5 µM
2 h
  Compound concentration: Bupivacaine: 271.3 µM
  Compound concentration: Pamoic acid: 140 µM
6 h
  Compound concentration: Bupivacaine: 275.1 µM
  Compound concentration: Pamoic acid: 145 µM
24 h
  Compound concentration: Bupivacaine: 305 µM
  Compound concentration: Pamoic acid: 151.6 µM
Simulated body fluid
  stability of the suspension (ratio between acid radical and basic group): stable
  solubility: about 0.3 mM
